pEC50: −log10 of the molar value. Read-outs that look alike come from different tables or passages of the source.
How the values were obtained:
[1] = system: P. berghei liver schizonts; design: method as in PMID 30523084; conditions: read-out: EC50 against P. berghei liver schizonts (reported); cited from earlier work
[2] = molecular target: P. berghei liver schizonts; experiment: GHPB dose-response confirmation, FLAR luciferase endpoint; type: cell-based, Plasmodium berghei
Method: A total of 35 compounds were identified for resupply of fresh powder for confirmation in dose–response assays. […] Powders were diluted to 50 mM in DMSO and plated in 1000 × source plates as described above. MMV390048 and puromycin were plated as the positive control for P. berghei liver schizont activity and cytotoxicity, respectively. Two independent experiments using 1 × FLAR and 5 × 10^3 cells/well were performed to assess the potency of these compounds against P. berghei liver schizonts, each with an independent production run of P. berghei sporozoites. […] Separately, two independent runs of the HepG2 cultured in galactose, assayed as described above, were used to assess the cytotoxicity potency and selectivity indices for these compounds. Both P. berghei liver schizont and HepG2 cytotoxicity data were loaded into CDD Vault for normalization, curve fitting, and EC50 calculations as described above. Receiver-operator characteristic (ROC) curves were generated using Graphpad Prism and area under the curve (AUC) was calculated using the Wilson/Brown method for both P. berghei liver schizont activity and HepG2 cytotoxicity.

[3] = system: HepG2 cells; experiment: HepG2 cytotoxicity assay in galactose media, 72 h, hepatic nuclei count by HCI; type: cell-based, Homo sapiens
Method: To assess the general cytotoxicity of GHPB compounds, HepG2 cells were cultured in media containing galactose instead of glucose to avoid false negatives due to the Crabtree effect. Following propagation of HepG2 in T-75 flasks with glucose-containing media as above, media was aspirated, the cell monolayer was washed with PBS, and then cells were trypsinized as above. Released cells were then resuspended in media containing glucose-free DMEM (Gibco, cat 11,966–025) supplemented with 10% FBS (Corning, cat 35–016-CV), 10 mM galactose (Sigma, cat G5388), 1 mM sodium pyruvate (Corning, cat 25–000-CI), 1 × penicillin–streptomycin-neomycin mix (Gibco, cat 15,640–055), and 2 mM L-glutamine (Gibco, cat 25,030–081). The cell density was calculated using trypan blue exclusion on a haemocytometer, diluted to 50 cells/µL, and 40 µL of cells were seeded into collagen-coated 384-well plates (Greiner Bio-One, cat 781,956) using a Biomek NXp (Beckman Coulter), resulting in 2 × 10^3 cells/well. The day after seeding, plates were treated with a pin tool as above and cultured for 72 h. Plates were then fixed with 4% paraformaldehyde, stained with 10 µg/mL Hoechst 33,342, and imaged on an ImageXpress Micro Confocal. Hepatic nuclei were quantified using MetaXpress (Molecular Devices) image analysis software. Both P. berghei liver schizont and HepG2 cytotoxicity data were loaded into CDD Vault for normalization and hit selection as described above. A total of 35 compounds were identified for resupply of fresh powder for confirmation in dose–response assays. […] Powders were diluted to 50 mM in DMSO and plated in 1000 × source plates as described above. […] Separately, two independent runs of the HepG2 cultured in galactose, assayed as described above, were used to assess the cytotoxicity potency and selectivity indices for these compounds. […] Receiver-operator characteristic (ROC) curves were generated using Graphpad Prism and area under the curve (AUC) was calculated using the Wilson/Brown method for both P. berghei liver schizont activity and HepG2 cytotoxicity.

[4] = system: P. berghei liver schizonts; experiment: GHPB single point primary screen, FLAR luciferase endpoint; type: cell-based, Plasmodium berghei; conditions: 1 µM
Method: The GHPB is an open-access collection of compounds (80 for vector control, 80 for zoonotic and neglected diseases, 80 for drug resistant malaria) obtained from MMV. The library was supplied in a 96-well microtitre plate and moved into a low-volume 384-well plate (Greiner Bio-One, cat 784,261) using a Biomek NXp to transfer 5 μL of 1 mM compound into the destination wells. MMV390048 (1 µM) was used for the positive control wells and DMSO (0.1% v/v) was used for the negative control wells. The GHPB was screened by seeding 5 × 10^3 cells/well which, after 24 h, were infected with a maximum available inoculum of 1.44 × 10^3 sporozoites/well. Three hours post-infection, plates were treated with a pin tool as described above. After 44 h, media was dumped from the plate, lysed using the freeze/thaw method, and luciferase signal was detected with 1 × FLAR as described above.

SMILES	pEC50 [1]	pEC50 ([2]; dose-response confirmation, FLAR, read-out: EC50 against P. berghei liver schizonts)	Activity (grouping in dose-response confirmation runs) ([2]; grouped as selectively active, active but with low selectivity, nonselective or inactive)	HepG2 Cytotoxicity (pEC50 ± SD) [3]	inhibition of P. berghei liver schizonts in the primary screen ([4]; 44 h) [%]	activity and selectivity in the primary screens ([4]; hit = > 80% inhibition of P. berghei and < 15% inhibition of HepG2)
CCCOc1ccc(C(F)(F)F)cc1NC(=O)c1nc2nccc(C)n2n1 [MMV1262756]	6.98					
Cn1ccnc1SCC(=O)Nc1ccc(C(=O)Nc2ncccc2O)cc1 [MMV1267536]		6.90	active and selective	4.83 ± 0.26	69.1	not considered hits
Cn1cc(CN2CCc3c(c(C(=O)NCc4nccs4)nn3Cc3ccccc3)C2)c2ccccc21 [MMV1167451]	5.20					
